# Data reported in patent publication US4401660A, “Ester derivatives of 5-O-mycaminosyl tylonolide and method of using same” (Eli Lilly and Company, priority 1981, dated 1983).
# Where two headings read alike, the source gives them in different places.
# Legend:
# [1] = system: Pasteurella haemolytica 41D; test: MIC, broth-dilution microtiter test (Table III); assay type: cell-based; set-up: unit not given here
# Procedure: (§1) The MIC's in Table II were determined by standard agar-dilution assays. The MIC's in Table III were obtained using a conventional broth-dilution microtiter test.
# Mycoplasma gallisepticum = test: MIC, broth-dilution microtiter test (Table III); assay type: cell-based; set-up: unit not given here
# Procedure: as §1
# [2] = system: Pasteurella multocida 60A; test: MIC, broth-dilution microtiter test (Table III); assay type: cell-based; set-up: unit not given here; conditions: avian isolate
# Procedure: as §1
# Staphylococcus aureus = test: MIC, broth-dilution microtiter test (Table III); assay type: cell-based; set-up: unit not given here
# Procedure: as §1
# [3] = system: Pasteurella haemolytica 23C; test: MIC, broth-dilution microtiter test (Table III); assay type: cell-based; set-up: unit not given here
# Procedure: as §1
# [4] = system: Pasteurella multocida 68C; test: MIC, broth-dilution microtiter test (Table III); assay type: cell-based; set-up: unit not given here
# Procedure: as §1
# Streptococcus sp. 80 = test: MIC, broth-dilution microtiter test (Table III); assay type: cell-based; set-up: unit not given here
# Procedure: as §1
# [5] = system: Pasteurella multocida 22A; test: MIC, broth-dilution microtiter test (Table III); assay type: cell-based; set-up: unit not given here
# Procedure: as §1
# [6] = system: Pasteurella multocida 17E; test: MIC, broth-dilution microtiter test (Table III); assay type: cell-based; set-up: unit not given here; conditions: bovine isolate
# Procedure: as §1
# [7] = system: Pasteurella haemolytica 22C; test: MIC, broth-dilution microtiter test (Table III); assay type: cell-based; set-up: unit not given here
# Procedure: as §1
# Mycoplasma hyorhinis = test: MIC, broth-dilution microtiter test (Table III); assay type: cell-based; set-up: unit not given here
# Procedure: as §1
# Mycoplasma synoviae = test: MIC, broth-dilution microtiter test (Table III); assay type: cell-based; set-up: unit not given here
# Procedure: as §1
# Pasteurella multocida = test: Treatment of Pasteurella infections in chicks (Table V); assay type: in vivo, one-day-old chicks; conditions: Pasteurella multocida, sc, 4 h; 30 mg/kg by subcutaneous injection one and four hours post challenge; read-out: Deaths in Treated Chicks/Number Treated (converted)
# How it was run: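 Dosing was 30 mg/kg by subcutaneous injection, one and four hours after challenge. Day-old chicks received 0.1 ml of a 10^-3 dilution of a 20-hour tryptose broth culture of avian P. multocida subcutaneously. Nonmedicated infected chicks served as controls, ten per group.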
# [8] = system: Staphylococcus epidermidis EPI2; test: MIC, standard agar-dilution assay (Table II); assay type: cell-based; set-up: unit not given here
# Procedure: as §1
# [9] = system: Staphylococcus aureus S13E; test: MIC, standard agar-dilution assay (Table II); assay type: cell-based; set-up: unit not given here
# Procedure: as §1
# [10] = system: Haemophilus influenzae Holt; test: MIC, standard agar-dilution assay (Table II); assay type: cell-based; set-up: unit not given here; conditions: ampicillin-sensitive strain
# Procedure: as §1
# [11] = system: Staphylococcus aureus X400; test: MIC, standard agar-dilution assay (Table II); assay type: cell-based; set-up: unit not given here; conditions: Staphylococcus aureus X400, methicillin-resistant strain
# Procedure: as §1
# [12] = system: Streptococcus pneumoniae Park I; test: MIC, standard agar-dilution assay (Table II); assay type: cell-based; set-up: unit not given here
# Procedure: as §1
# [13] = system: Staphylococcus aureus V41; test: MIC, standard agar-dilution assay (Table II); assay type: cell-based; set-up: unit not given here; conditions: Staphylococcus aureus V41, penicillin-resistant strain
# Procedure: as §1
# [14] = system: Streptococcus pyogenes C203; test: MIC, standard agar-dilution assay (Table II); assay type: cell-based; set-up: unit not given here
# Procedure: as §1
# [15] = system: Haemophilus influenzae R252; test: MIC, standard agar-dilution assay (Table II); assay type: cell-based; set-up: unit not given here; conditions: Haemophilus influenzae R252, ampicillin-resistant strain
# Procedure: as §1
# [16] = system: Streptococcus Group D X66; test: MIC, standard agar-dilution assay (Table II); assay type: cell-based; set-up: unit not given here
# Procedure: as §1
# [17] = system: Staphylococcus epidermidis EPI1; test: MIC, standard agar-dilution assay (Table II); assay type: cell-based; set-up: unit not given here
# Procedure: as §1
# [18] = system: Streptococcus Group D 9960; test: MIC, standard agar-dilution assay (Table II); assay type: cell-based; set-up: unit not given here
# Procedure: as §1
# [19] = system: Streptococcus pyogenes C203; test: ED50 in mice with experimental infections (Table IV); assay type: in vivo; conditions: Streptococcus pyogenes, doses given 1 and 4 hours postinfection
# Procedure: The OMT ester derivatives of this invention have shown in vivo antimicrobial activity against experimental bacterial infections caused by gram-positive bacteria. When two doses of test compound were administered to mice with experimental infections, the activity observed was measured as an ED50 value [effective dose in mg/kg to protect 50% of the test animals: see Warren Wick, et al., J. Bacteriol. 81, 233-235 (1961)].
# ^a mg/kg × 2; doses given 1 and 4 hours postinfection
# [20] = system: Staphylococcus aureus X1.1; test: MIC, standard agar-dilution assay (Table II); assay type: cell-based; set-up: unit not given here
# Procedure: as §1
# [21] = system: Pasteurella multocida 40G; test: MIC, broth-dilution microtiter test (Table III); assay type: cell-based; set-up: unit not given here
# Procedure: as §1
# [22] = C203, oral, read-out: ED50, Oral
# [23] = C203, sc, subcutaneous, read-out: ED50, Subcutaneous
Compound,minimal inhibitory concentration (MIC) [1],minimal inhibitory concentration (MIC) (Mycoplasma gallisepticum),minimal inhibitory concentration (MIC) [2],minimal inhibitory concentration (MIC) (Staphylococcus aureus),minimal inhibitory concentration (MIC) (Streptococcus sp. 80),minimal inhibitory concentration (MIC) [6],minimal inhibitory concentration (MIC) (Mycoplasma hyorhinis),minimal inhibitory concentration (MIC) (Mycoplasma synoviae),mortality at 30 mg/kg (Pasteurella multocida) [%],minimal inhibitory concentration (MIC) [8],minimal inhibitory concentration (MIC) [9],minimal inhibitory concentration (MIC) [10],minimal inhibitory concentration (MIC) [11],minimal inhibitory concentration (MIC) [12],minimal inhibitory concentration (MIC) [13],minimal inhibitory concentration (MIC) [14],minimal inhibitory concentration (MIC) [15],minimal inhibitory concentration (MIC) [16],minimal inhibitory concentration (MIC) [17],minimal inhibitory concentration (MIC) [18],also measured
"CCC1OC(=O)CC(O)C(C)C(OC2OC(C)C(OC(C)=O)C(N(C)C)C2OC(C)=O)C(CC=O)CC(C)C(=O)C=CC(C)=CC1COC(=O)c1ccccc1 (centres unmarked) [Compound 6, 23-O-Benzoyl-2',4'-Di-O-acetyl-OMT]",3.12,< 0.05,0.78,0.39,0.195,1.56,0.39,0.39,80,0.5,0.25,2,0.25,0.06,0.25,0.125,2,0.25,0.25,0.25,"minimal inhibitory concentration (MIC) [3]: 3.12; minimal inhibitory concentration (MIC) [4]: 0.78; minimal inhibitory concentration (MIC) [5]: 1.56; minimal inhibitory concentration (MIC) [7]: 6.25; ED50 [19, 22]: 146 mg/kg; ED50 [19, 23]: > 30 mg/kg"
CCC1OC(=O)CC(O)C(C)C(OC2OC(C)C(O)C(N(C)C)C2OC(C)=O)C(CC=O)CC(C)C(=O)C=CC(C)=CC1COC(=O)Cc1ccccc1 (centres unmarked) [Compound 28],3.12,< 0.05,0.78,0.195,< 0.05,1.56,1.56,< 0.05,80,0.125,0.125,1,0.25,0.015,0.125,0.125,1,0.125,0.125,0.125,"minimal inhibitory concentration (MIC) [3]: 3.12; minimal inhibitory concentration (MIC) [4]: 0.78; minimal inhibitory concentration (MIC) [5]: 3.12; minimal inhibitory concentration (MIC) [7]: 6.25; minimal inhibitory concentration (MIC) [20]: 0.125; ED50 [19, 22]: 155 mg/kg; ED50 [19, 23]: 6.5 mg/kg"
CCC1OC(=O)CC(O)C(C)C(OC2OC(C)C(O)C(N(C)C)C2O)C(CC=O)CC(C)C(=O)C=CC(C)=CC1COC(=O)CC(C)C (centres unmarked) [Compound 22],,< 0.05,3.12,0.78,0.097,1.56,0.78,< 0.05,10,0.25,0.25,2,0.5,0.125,0.25,0.25,4,0.5,0.25,0.5,"minimal inhibitory concentration (MIC) [20]: 0.25; ED50 [19, 22]: > 150 mg/kg; ED50 [19, 23]: 7.5 mg/kg"
CCC1OC(=O)CC(O)C(C)C(OC2OC(C)C(O)C(N(C)C)C2OC(C)=O)C(CC=O)CC(C)C(=O)C=CC(C)=CC1COC(=O)OC (centres unmarked) [Compound 73],3.12,0.097,6.25,0.78,0.39,6.25,0.39,0.097,0,0.25,0.25,1,0.25,0.03,0.25,0.25,2,0.25,0.25,0.25,minimal inhibitory concentration (MIC) [3]: 6.25; minimal inhibitory concentration (MIC) [4]: 3.12; minimal inhibitory concentration (MIC) [5]: > 50; minimal inhibitory concentration (MIC) [21]: 6.25; minimal inhibitory concentration (MIC) [7]: 6.25; minimal inhibitory concentration (MIC) [20]: 0.25
